GI50 and TGI data for 8 molecules are collected here from PubChem BioAssay (NCI).

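In this assay, cells in 96-well plates receive the compound at five concentrations for 48 hours. Endpoints are linearly interpolated between the surrounding concentrations. Here, GI50 denotes the concentration required for 50% inhibition of growth. TGI is the concentration that stops growth completely.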

Some test systems named below: HT29 colon; NCI-H23 lung; NCI-H460 lung; NCI/ADR-RES ovarian; OVCAR-4 ovarian; SF-539 CNS; SK-MEL-2 melanoma; SK-MEL-28 melanoma; SW-620 colon; UACC-257 melanoma.
What all share (assay): NCI-60 cell line screen, 48 h

Regarding `CC(=O)/C=C/c1ccc(OCc2ccc(Cl)cc2)cc1`, the GI50 in the assay with HT29 colon was over 1000 µM; with NCI-H23 lung, 720 µM; in the assay with NCI-H460 lung it was 529 µM; in the assay on NCI/ADR-RES ovarian, 395 µM; with OVCAR-4 ovarian, 648 µM; in the assay with SF-539 CNS it was over 1000 µM. Further, the GI50 was 473 µM in the assay with SK-MEL-2 melanoma, 400 µM in the assay on SK-MEL-28 melanoma, over 1000 µM in the assay with SW-620 colon and 274 µM with UACC-257 melanoma. Besides, the TGI with HT29 colon, in the assay on NCI-H23 lung, in the assay with NCI-H460 lung, in the assay with NCI/ADR-RES ovarian, in the assay on OVCAR-4 ovarian and with SF-539 CNS was over 1000 µM throughout. The TGI in the assay with SK-MEL-2 melanoma, with SK-MEL-28 melanoma, with SW-620 colon and in the assay on UACC-257 melanoma was over 1000 µM each time.
As for `CC1(C)Cc2c(Br)c(Br)c(Br)c(OCC(O)CN3CCN(c4ccccn4)CC3)c2O1` (centres undefined), the GI50 was 5.5 µM with HT29 colon; 13.4 µM with NCI-H23 lung; 9.43 µM in the assay with NCI-H460 lung; 16.3 µM in the assay on NCI/ADR-RES ovarian; 12.1 µM in the assay on OVCAR-4 ovarian; 13.6 µM in the assay on SF-539 CNS. For the same molecule, the GI50 with SK-MEL-2 melanoma was 4.95 µM; with SK-MEL-28 melanoma, 18 µM; in the assay on SW-620 colon, 15.2 µM; in the assay with UACC-257 melanoma it was 16.6 µM. In addition, the TGI in the assay with HT29 colon is 18 µM; in the assay with NCI-H23 lung, 32 µM; in the assay on NCI-H460 lung it was 22.9 µM; in the assay on NCI/ADR-RES ovarian, 42.6 µM; with OVCAR-4 ovarian, 26.7 µM; with SF-539 CNS, 29.2 µM. Moreover, the TGI with SK-MEL-2 melanoma came to 19.2 µM; in the assay with SK-MEL-28 melanoma, 32.7 µM; in the assay with SW-620 colon, 29.2 µM; in the assay with UACC-257 melanoma, 39.7 µM.
Consider `COc1cc2c(c(OC)c1OC)-c1ccc(N=NC(N)=S)c(=O)cc1[C@@H](NC(C)=O)CC2`, for which the GI50 was 0.388 µM in the assay with HT29 colon; 0.347 µM in the assay on NCI-H23 lung; 0.418 µM in the assay with NCI-H460 lung; 17.5 µM in the assay on NCI/ADR-RES ovarian; 1.43 µM with OVCAR-4 ovarian; 0.311 µM in the assay on SF-539 CNS. The GI50 with SK-MEL-2 melanoma is 0.393 µM; with SK-MEL-28 melanoma it was 0.808 µM; in the assay on SW-620 colon, 0.421 µM; in the assay on UACC-257 melanoma, over 100 µM. Besides, the TGI was over 100 µM in the assay on HT29 colon; over 100 µM with NCI-H23 lung; 12.2 µM in the assay with NCI-H460 lung; 49.1 µM in the assay with NCI/ADR-RES ovarian; over 100 µM with OVCAR-4 ovarian; over 100 µM in the assay with SK-MEL-2 melanoma. Besides, the TGI in the assay on SK-MEL-28 melanoma, in the assay with SW-620 colon and in the assay with UACC-257 melanoma was over 100 µM each time.
Regarding `COc1cc(C)c2sc3ccccc3c(=O)c2c1NCCN(C)C`, the GI50 in the assay on HT29 colon is 2.62 µM; in the assay on NCI-H23 lung, 13.1 µM; with NCI-H460 lung, 3.26 µM; in the assay with NCI/ADR-RES ovarian it was 12.4 µM; in the assay on OVCAR-4 ovarian it was 8.08 µM; in the assay with SF-539 CNS, 4.73 µM. Also, the GI50 with SK-MEL-2 melanoma was 6.64 µM; with SK-MEL-28 melanoma it was 1.83 µM; in the assay on SW-620 colon, 3.39 µM; in the assay on UACC-257 melanoma, 2.06 µM. Moreover, the TGI in the assay with HT29 colon came to 9.15 µM; in the assay on NCI-H23 lung, 28 µM; in the assay on NCI-H460 lung, 12.3 µM; with NCI/ADR-RES ovarian, 27 µM; with OVCAR-4 ovarian it was 20.9 µM; in the assay with SF-539 CNS, 17.4 µM. Further, the TGI turned out to be 19.6 µM with SK-MEL-2 melanoma, 3.42 µM with SK-MEL-28 melanoma, 14.5 µM with SW-620 colon and 3.97 µM with UACC-257 melanoma.
On to `CC(=O)OC1=CC2(OC(C)=O)CC(C)(C)C1C1C(=O)C=CC(=O)C12` (centres undefined), for which the TGI with HT29 colon was 47.9 µM; in the assay on NCI-H23 lung it was over 100 µM; in the assay on NCI-H460 lung, over 100 µM; in the assay on NCI/ADR-RES ovarian, over 100 µM; with OVCAR-4 ovarian, over 100 µM; in the assay with SF-539 CNS, over 71 µM. Also, the TGI in the assay with SK-MEL-2 melanoma, in the assay with SK-MEL-28 melanoma, in the assay on SW-620 colon and in the assay with UACC-257 melanoma was over 100 µM each time.
Consider `CC1=Nc2c([nH]c(=S)[nH]c2=O)NC(c2c(Cl)cccc2Cl)C1` (centres undefined), for which the TGI in the assay with HT29 colon was found to be 2.35 µM; in the assay with NCI-H23 lung, 7.4 µM; in the assay on NCI-H460 lung it was 5.64 µM; with NCI/ADR-RES ovarian, 0.412 µM; with OVCAR-4 ovarian it was 9.09 µM; in the assay with SF-539 CNS, 4.2 µM. The TGI amounted to 32.9 µM in the assay with SK-MEL-2 melanoma, 6.26 µM in the assay on SK-MEL-28 melanoma, 2.05 µM with SW-620 colon and 9.4 µM in the assay with UACC-257 melanoma.
On to `Cn1cc(C2=C(Nc3ccccc3)C(=O)NC2=O)c2ccccc21`, for which the GI50 is 14.7 µM with HT29 colon; over 25 µM with NCI-H23 lung; over 25 µM in the assay on NCI-H460 lung; over 25 µM in the assay with NCI/ADR-RES ovarian; over 21.8 µM in the assay on OVCAR-4 ovarian; over 25 µM in the assay on SF-539 CNS. Moreover, the GI50 in the assay with SK-MEL-2 melanoma, with SK-MEL-28 melanoma, with SW-620 colon and with UACC-257 melanoma was over 25 µM throughout. The TGI in the assay on HT29 colon, in the assay with NCI-H23 lung, in the assay with NCI-H460 lung, in the assay with NCI/ADR-RES ovarian, in the assay with OVCAR-4 ovarian and in the assay on SF-539 CNS was over 25 µM in each case. Also, the TGI with SK-MEL-2 melanoma, in the assay with SK-MEL-28 melanoma, in the assay on SW-620 colon and with UACC-257 melanoma was over 25 µM in each case.
On to `O=[N+]([O-])c1cc2no[n+]([O-])c2cc1N1CCCCC1`, for which the TGI in the assay with HT29 colon was 3.86 µM; in the assay with NCI-H23 lung, 43.4 µM; in the assay with NCI-H460 lung, 56.6 µM; in the assay with NCI/ADR-RES ovarian, over 20.8 µM; in the assay on OVCAR-4 ovarian it was 8.37 µM; with SF-539 CNS it was over 20.1 µM. Besides, the TGI with SK-MEL-2 melanoma is 30.5 µM; with SK-MEL-28 melanoma, 32.9 µM; in the assay on SW-620 colon it was over 100 µM; with UACC-257 melanoma, over 36.1 µM.
